Data taken from paper PMC5474674, “D-BMAP18 Antimicrobial Peptide Is Active In vitro, Resists to Pulmonary Proteases but Loses Its Activity in a Murine Model of Pseudomonas aeruginosa Lung Infection” (Frontiers in Chemistry, 2017).
Where a SMILES comes first, the peptide text is derived from it.

What was measured:
[1] = cited from earlier work
Procedure: D-BMAP18 was synthesized to provide a molecule more resistant to enzymatic cleavage. The stability of D-BMAP18 was tested in murine BAL fluid.

P. aeruginosa RP73 = format: in vivo, mouse; details: 10 mg/kg intratracheal, day 1
Procedure: C57/Bl6NCrl mice (n = 8/group) were intratracheally challenged with 1 × 10^7 cells P. aeruginosa RP73 clinical strain, and 5 min later a single dose of D-BMAP18 at different concentrations (0.5, 1, and 2 mg/kg) was intratracheally administrated. Sterile distilled water alone or tobramycin [10 mg/kg] (Sigma-Aldrich S.r.l.), were used respectively as negative and positive control. […] Subsequently, lungs were homogenized (24,000 rpm) on ice in 1 ml of sterile PBS by using Ultra-Turrax T25-Basic homogenizer (IKA-Werke GmbH & Co. KG, Germany). Ten-fold serial dilutions of lung homogenates were plated on MH agar (Oxoid SpA), and the number of colony-forming units (CFU) was counted after incubation at 37°C for 24 h.

| Structure (SMILES) | degradation in murine BAL after 10 min [1] | time within which peptide is degraded by pulmonary proteases in murine BAL [1] [min] | effect on bacterial load in murine lungs (P. aeruginosa RP73) | mortality (P. aeruginosa RP73; 1 out of 8 mice) [%] |
| --- | --- | --- | --- | --- |
| CC(C)C[C@H](NC(=O)[C@H](CCCCN)NC(=O)[C@H](CCCCN)NC(=O)[C@H](Cc1ccccc1)NC(=O)[C@H](CC(C)C)NC(=O)[C@H](CCCCN)NC(=O)[C@H](CCCCN)NC(=O)[C@H](Cc1ccccc1)NC(=O)[C@H](CCCCN)NC(=O)[C@H](CCCCN)NC(=O)[C@H](CCCNC(=N)N)NC(=O)[C@H](Cc1ccccc1)NC(=O)[C@H](CCCNC(=N)N)NC(=O)[C@H](CCCCN)NC(=O)[C@H](Cc1ccccc1)NC(=O)[C@H](CCCNC(=N)N)NC(=O)CN)C(=O)N[C@@H](CO)C(N)=O [L-BMAP18] (H-GRFKRFRKKFKKLFKKLS-NH2) | most of the L-BMAP-18 was digested | ≤ 20 | – | – |
| NC[C@H]1O[C@H](O[C@H]2[C@H](O)[C@@H](O[C@H]3O[C@H](CO)[C@@H](O)[C@H](N)[C@H]3O)[C@H](N)C[C@@H]2N)[C@H](N)C[C@@H]1O [tobramycin] | – | – | weak effect | 12.5 |
